Key:
Test in all cases: Kinase profiling
Assay type in all cases: biochemical
TGFBR2 = target: T1, TGFBR2 (Homo sapiens, UniProt P37173)
T1 construct: purchased ProQinase (Freiburg, Germany)
Description: (§1) The analysis was performed by ProQinase (Freiburg, Germany).

BMPR1A = target: T2, BMPR1A (Homo sapiens, UniProt P36894)
T2 construct: purchased ProQinase (Freiburg, Germany)
Description: as §1

CDC42BPA = target: T3, CDC42BPA (Homo sapiens, UniProt Q5VT25)
T3 construct: purchased ProQinase (Freiburg, Germany)
Description: as §1

PKCmu = target: T4, PKCmu (Homo sapiens, UniProt Q15139)
T4 construct: purchased ProQinase (Freiburg, Germany)
T4 sequence (Q15139 1-912): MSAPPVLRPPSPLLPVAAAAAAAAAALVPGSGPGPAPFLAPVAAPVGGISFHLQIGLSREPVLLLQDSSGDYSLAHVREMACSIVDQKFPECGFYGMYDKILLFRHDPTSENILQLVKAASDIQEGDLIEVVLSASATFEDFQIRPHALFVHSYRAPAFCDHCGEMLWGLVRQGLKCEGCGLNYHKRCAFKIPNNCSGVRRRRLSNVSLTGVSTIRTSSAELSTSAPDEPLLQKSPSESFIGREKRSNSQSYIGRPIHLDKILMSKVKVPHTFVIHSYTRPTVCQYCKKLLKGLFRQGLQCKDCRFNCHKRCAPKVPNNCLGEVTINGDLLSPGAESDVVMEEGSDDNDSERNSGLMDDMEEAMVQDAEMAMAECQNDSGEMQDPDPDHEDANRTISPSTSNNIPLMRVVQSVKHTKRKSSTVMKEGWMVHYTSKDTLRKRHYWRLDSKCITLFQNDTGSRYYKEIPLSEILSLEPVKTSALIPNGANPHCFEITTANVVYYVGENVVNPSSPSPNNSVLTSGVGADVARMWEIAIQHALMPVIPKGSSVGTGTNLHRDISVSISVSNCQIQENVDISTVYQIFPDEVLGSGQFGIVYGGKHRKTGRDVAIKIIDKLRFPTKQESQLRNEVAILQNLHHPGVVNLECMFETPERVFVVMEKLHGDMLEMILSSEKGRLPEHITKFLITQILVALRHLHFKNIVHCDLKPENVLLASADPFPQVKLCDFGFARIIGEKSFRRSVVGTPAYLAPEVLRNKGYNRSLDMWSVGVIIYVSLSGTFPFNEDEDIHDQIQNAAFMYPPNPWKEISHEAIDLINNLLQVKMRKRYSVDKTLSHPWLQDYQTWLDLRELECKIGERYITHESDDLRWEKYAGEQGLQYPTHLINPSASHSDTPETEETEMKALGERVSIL
Description: as §1

CDK3/CycC = target: T5, CDK3/CycC (Homo sapiens, UniProt Q00526)
T5 construct: purchased ProQinase (Freiburg, Germany)
Description: as §1

PRK1 = target: T6, PRK1 (Homo sapiens, UniProt Q16512)
T6 construct: purchased ProQinase (Freiburg, Germany)
Description: as §1

IKKbeta = target: T7, IKKbeta (Homo sapiens, UniProt O14920)
T7 construct: purchased ProQinase (Freiburg, Germany)
T7 sequence (O14920 1-756): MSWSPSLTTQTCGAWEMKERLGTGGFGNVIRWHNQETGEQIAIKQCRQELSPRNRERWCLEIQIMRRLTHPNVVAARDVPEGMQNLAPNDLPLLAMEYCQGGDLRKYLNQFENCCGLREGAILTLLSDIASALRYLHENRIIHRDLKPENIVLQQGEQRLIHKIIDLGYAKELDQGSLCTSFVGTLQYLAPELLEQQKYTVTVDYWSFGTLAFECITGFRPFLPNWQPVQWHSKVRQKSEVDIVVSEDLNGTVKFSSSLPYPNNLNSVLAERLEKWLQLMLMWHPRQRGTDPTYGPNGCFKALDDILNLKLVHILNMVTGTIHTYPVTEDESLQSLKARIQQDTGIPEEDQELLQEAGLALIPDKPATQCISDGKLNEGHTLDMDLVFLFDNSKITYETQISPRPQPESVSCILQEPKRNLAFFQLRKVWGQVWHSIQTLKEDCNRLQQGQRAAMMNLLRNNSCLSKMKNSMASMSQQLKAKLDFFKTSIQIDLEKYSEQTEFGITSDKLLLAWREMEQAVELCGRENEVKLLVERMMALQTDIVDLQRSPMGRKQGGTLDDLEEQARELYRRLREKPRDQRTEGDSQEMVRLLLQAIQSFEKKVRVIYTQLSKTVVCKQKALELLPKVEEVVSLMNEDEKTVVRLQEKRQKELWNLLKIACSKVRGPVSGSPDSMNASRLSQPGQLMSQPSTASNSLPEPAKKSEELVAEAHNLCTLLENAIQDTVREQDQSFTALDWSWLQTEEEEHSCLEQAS
Description: as §1

CDK5/p35NCK = target: T8, CDK5/p35NCK (Homo sapiens, UniProt Q00535)
T8 construct: purchased ProQinase (Freiburg, Germany)
Description: as §1

AuroraC = target: T9, AuroraC (Homo sapiens, UniProt Q9UQB9)
T9 construct: purchased ProQinase (Freiburg, Germany)
T9 sequence (Q9UQB9 1-309): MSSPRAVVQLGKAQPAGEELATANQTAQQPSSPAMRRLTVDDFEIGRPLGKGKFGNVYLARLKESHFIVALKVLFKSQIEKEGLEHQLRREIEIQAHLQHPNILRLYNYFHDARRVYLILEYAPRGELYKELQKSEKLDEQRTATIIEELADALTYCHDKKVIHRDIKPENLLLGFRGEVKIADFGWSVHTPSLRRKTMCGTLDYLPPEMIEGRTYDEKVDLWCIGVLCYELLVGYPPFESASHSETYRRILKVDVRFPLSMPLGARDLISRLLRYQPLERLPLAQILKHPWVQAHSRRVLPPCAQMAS
Description: as §1

CHK2 = target: T10, CHK2 (Homo sapiens, UniProt O96017)
T10 construct: purchased ProQinase (Freiburg, Germany)
Description: as §1

T5 sequence (Q00526 whole entry): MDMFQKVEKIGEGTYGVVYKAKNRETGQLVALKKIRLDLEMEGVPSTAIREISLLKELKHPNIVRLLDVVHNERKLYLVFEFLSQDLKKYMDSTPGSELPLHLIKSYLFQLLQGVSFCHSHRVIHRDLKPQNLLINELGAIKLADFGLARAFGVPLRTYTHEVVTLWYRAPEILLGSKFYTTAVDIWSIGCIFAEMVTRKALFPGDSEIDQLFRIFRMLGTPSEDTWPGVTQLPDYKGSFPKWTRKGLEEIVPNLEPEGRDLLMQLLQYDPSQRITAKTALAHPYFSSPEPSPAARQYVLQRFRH
T5 sequence (P24863 whole entry partner): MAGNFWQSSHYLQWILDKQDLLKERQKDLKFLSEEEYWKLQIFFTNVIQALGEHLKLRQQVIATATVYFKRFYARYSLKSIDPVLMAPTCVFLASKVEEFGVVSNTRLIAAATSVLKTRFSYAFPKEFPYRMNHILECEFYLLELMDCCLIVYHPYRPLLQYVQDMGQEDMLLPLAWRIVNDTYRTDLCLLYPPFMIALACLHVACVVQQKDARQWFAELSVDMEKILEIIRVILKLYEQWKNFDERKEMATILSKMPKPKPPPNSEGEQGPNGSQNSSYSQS
T2 sequence (P36894 24-532): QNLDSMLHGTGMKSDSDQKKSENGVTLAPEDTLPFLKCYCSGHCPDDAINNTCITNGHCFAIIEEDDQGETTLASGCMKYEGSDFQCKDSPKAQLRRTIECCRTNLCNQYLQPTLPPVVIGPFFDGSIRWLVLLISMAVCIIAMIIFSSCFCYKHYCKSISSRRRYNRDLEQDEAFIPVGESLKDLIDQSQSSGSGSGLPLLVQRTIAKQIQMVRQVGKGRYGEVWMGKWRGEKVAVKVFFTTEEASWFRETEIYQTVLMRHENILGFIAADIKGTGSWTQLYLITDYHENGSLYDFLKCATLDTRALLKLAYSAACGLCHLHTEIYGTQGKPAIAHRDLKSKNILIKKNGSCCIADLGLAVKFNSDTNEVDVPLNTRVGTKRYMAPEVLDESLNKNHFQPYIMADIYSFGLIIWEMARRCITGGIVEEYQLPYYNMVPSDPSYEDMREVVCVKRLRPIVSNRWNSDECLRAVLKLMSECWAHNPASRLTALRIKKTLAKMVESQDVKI
T1 sequence (P37173 23-567): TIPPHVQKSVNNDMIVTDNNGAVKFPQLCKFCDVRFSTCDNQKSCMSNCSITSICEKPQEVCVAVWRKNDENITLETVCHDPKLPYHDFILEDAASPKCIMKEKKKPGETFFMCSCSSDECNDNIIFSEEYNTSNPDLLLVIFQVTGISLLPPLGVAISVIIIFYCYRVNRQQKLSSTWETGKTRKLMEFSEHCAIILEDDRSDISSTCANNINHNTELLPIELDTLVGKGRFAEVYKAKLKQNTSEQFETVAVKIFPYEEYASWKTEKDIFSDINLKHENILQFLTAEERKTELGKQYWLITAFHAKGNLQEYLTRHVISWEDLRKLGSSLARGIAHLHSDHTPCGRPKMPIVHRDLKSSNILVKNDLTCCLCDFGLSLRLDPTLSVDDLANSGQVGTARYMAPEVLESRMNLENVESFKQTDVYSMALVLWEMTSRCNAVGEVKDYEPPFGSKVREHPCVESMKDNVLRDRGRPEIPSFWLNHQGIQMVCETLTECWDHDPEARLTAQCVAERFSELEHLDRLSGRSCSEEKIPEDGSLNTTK
T3 sequence (Q5VT25 whole entry): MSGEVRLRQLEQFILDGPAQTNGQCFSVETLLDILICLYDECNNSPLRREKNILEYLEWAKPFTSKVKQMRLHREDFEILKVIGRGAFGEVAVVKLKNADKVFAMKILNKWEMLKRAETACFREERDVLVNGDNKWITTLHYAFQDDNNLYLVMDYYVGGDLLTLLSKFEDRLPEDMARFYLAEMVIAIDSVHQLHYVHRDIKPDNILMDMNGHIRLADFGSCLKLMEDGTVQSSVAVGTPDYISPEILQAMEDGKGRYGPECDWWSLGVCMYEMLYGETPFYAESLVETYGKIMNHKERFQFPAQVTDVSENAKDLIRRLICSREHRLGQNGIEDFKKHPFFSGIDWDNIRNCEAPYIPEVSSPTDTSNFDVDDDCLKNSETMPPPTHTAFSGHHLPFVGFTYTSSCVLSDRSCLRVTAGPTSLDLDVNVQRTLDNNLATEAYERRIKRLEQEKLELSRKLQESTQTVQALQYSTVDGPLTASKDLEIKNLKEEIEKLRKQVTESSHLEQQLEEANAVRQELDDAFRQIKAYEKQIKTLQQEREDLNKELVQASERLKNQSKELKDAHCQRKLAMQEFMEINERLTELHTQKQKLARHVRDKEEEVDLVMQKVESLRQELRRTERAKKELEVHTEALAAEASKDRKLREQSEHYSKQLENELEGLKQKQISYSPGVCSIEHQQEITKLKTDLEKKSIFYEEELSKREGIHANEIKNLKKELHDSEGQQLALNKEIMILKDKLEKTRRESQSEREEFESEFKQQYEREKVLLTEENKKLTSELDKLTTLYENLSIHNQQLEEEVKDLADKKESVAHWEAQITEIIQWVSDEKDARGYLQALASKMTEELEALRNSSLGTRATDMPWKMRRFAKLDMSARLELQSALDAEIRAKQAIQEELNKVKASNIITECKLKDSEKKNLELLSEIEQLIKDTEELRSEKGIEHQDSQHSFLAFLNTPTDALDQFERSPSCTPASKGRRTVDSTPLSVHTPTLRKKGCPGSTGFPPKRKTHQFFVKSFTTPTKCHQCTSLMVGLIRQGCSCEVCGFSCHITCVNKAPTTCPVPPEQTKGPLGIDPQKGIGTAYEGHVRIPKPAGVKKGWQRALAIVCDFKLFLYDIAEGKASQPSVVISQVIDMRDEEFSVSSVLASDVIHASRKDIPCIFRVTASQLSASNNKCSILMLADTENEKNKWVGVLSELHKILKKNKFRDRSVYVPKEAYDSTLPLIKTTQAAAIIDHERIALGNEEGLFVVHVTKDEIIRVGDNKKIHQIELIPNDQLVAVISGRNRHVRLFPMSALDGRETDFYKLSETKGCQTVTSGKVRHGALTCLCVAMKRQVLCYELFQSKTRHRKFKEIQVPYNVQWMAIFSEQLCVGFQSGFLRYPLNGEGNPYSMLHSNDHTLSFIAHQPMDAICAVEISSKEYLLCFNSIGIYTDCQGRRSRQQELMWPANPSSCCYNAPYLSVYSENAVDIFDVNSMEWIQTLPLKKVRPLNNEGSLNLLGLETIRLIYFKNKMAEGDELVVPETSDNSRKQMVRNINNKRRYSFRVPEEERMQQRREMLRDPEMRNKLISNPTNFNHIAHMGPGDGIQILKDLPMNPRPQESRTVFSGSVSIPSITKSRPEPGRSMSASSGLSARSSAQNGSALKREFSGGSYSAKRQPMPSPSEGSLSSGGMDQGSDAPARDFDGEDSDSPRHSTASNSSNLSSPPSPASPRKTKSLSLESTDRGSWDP
T10 sequence (O96017 whole entry): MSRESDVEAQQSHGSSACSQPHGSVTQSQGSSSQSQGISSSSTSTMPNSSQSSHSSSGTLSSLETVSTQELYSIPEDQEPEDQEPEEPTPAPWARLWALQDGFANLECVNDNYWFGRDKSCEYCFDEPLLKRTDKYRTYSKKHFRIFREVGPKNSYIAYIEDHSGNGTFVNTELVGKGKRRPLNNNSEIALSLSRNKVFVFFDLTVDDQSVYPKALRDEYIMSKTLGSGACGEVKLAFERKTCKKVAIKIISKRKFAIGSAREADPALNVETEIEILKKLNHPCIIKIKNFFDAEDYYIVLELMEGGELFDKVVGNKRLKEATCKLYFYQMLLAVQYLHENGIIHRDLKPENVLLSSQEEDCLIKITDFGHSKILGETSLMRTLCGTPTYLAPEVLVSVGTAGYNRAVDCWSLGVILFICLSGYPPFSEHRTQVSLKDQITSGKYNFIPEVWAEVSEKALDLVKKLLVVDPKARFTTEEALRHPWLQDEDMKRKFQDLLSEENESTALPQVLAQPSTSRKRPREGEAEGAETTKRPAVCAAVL
T6 sequence (Q16512 whole entry): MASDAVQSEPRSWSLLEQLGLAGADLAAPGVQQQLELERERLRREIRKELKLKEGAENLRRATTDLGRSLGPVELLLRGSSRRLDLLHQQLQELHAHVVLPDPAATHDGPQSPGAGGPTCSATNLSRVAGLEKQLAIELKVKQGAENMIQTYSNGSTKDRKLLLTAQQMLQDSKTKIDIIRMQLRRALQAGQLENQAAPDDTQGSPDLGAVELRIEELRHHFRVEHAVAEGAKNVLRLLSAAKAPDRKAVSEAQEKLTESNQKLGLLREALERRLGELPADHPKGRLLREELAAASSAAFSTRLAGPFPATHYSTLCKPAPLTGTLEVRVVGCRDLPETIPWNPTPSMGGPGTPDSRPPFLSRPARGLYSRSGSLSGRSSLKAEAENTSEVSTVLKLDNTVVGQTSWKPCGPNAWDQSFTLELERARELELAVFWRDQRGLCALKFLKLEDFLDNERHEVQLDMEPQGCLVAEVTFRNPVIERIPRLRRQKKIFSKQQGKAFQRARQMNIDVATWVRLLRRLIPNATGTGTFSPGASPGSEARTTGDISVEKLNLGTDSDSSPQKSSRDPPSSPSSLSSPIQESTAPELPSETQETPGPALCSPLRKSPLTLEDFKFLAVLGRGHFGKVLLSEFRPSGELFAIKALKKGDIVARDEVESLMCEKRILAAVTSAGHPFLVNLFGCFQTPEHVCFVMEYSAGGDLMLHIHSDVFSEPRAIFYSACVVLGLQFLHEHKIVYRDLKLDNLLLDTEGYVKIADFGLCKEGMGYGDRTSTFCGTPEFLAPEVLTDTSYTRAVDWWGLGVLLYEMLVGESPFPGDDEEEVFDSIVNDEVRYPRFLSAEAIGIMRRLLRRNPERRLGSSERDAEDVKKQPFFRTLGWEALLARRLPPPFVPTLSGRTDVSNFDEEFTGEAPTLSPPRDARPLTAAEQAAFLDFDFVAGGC

O=C(Cc1ccccc1)Nc1ccc(F)c(Nc2ccc3c(c2)CCCCC3=O)c1 [Compound 100]
Residual activity (TGFBR2; 1.0E-05 M): 74 % of control
Residual activity (TGFBR2; 1.0E-06 M): 79 % of control
Residual activity (BMPR1A; 1.0E-05 M): 82 % of control
Residual activity (BMPR1A; 1.0E-06 M): 101 % of control
Residual activity (CDC42BPA; 1.0E-05 M): 110 % of control
Residual activity (CDC42BPA; 1.0E-06 M): 114 % of control
Residual activity (PKCmu; 1.0E-05 M): 94 % of control
Residual activity (PKCmu; 1.0E-06 M): 106 % of control
Residual activity (CDK3/CycC; 1.0E-05 M): 89 % of control
Residual activity (CDK3/CycC; 1.0E-06 M): 97 % of control
Residual activity (PRK1; 1.0E-05 M): 101 % of control
Residual activity (PRK1; 1.0E-06 M): 112 % of control
Residual activity (IKKbeta; 1.0E-05 M): 99 % of control
Residual activity (IKKbeta; 1.0E-06 M): 110 % of control
Residual activity (CDK5/p35NCK; 1.0E-05 M): 93 % of control
Residual activity (CDK5/p35NCK; 1.0E-06 M): 105 % of control
Residual activity (AuroraC; 1.0E-05 M): 101 % of control
Residual activity (AuroraC; 1.0E-06 M): 110 % of control
Residual activity (CHK2; 1.0E-05 M): 72 % of control
Residual activity (CHK2; 1.0E-06 M): 92 % of control

O=C(Nc1ccc(F)c(Nc2ccc3c(c2)CCCCC3=O)c1)c1cccc(F)c1 [Compound 109]
Residual activity (TGFBR2; 1.0E-05 M): 79 % of control
Residual activity (TGFBR2; 1.0E-06 M): 82 % of control
Residual activity (BMPR1A; 1.0E-05 M): 88 % of control
Residual activity (BMPR1A; 1.0E-06 M): 92 % of control
Residual activity (CDC42BPA; 1.0E-05 M): 116 % of control
Residual activity (CDC42BPA; 1.0E-06 M): 103 % of control
Residual activity (PKCmu; 1.0E-05 M): 96 % of control
Residual activity (PKCmu; 1.0E-06 M): 95 % of control
Residual activity (CDK3/CycC; 1.0E-05 M): 96 % of control
Residual activity (CDK3/CycC; 1.0E-06 M): 87 % of control
Residual activity (PRK1; 1.0E-05 M): 101 % of control
Residual activity (PRK1; 1.0E-06 M): 94 % of control
Residual activity (IKKbeta; 1.0E-05 M): 79 % of control
Residual activity (IKKbeta; 1.0E-06 M): 84 % of control
Residual activity (CDK5/p35NCK; 1.0E-05 M): 101 % of control
Residual activity (CDK5/p35NCK; 1.0E-06 M): 95 % of control
Residual activity (AuroraC; 1.0E-05 M): 101 % of control
Residual activity (AuroraC; 1.0E-06 M): 99 % of control
Residual activity (CHK2; 1.0E-05 M): 74 % of control
Residual activity (CHK2; 1.0E-06 M): 94 % of control
